Results on 30 compounds are retold here after ChEMBL document CHEMBL4831520, “Discovery of First-in-Class Dual PARP and EZH2 Inhibitors for Triple-Negative Breast Cancer with Wild-Type BRCA” (J Med Chem, 2021).

Test [1] relates to MDA-MB-231. Nature of the test: cells. Format: functional, cell-based. As to conditions: Homo sapiens, MDA-MB-231, 72 h.
Description: Antiproliferative activity against human MDA-MB-231 cells assessed as cell viability after 72 hrs by MTT assay
The test system of test [2] is MDA-MB-468. Nature of the test: cells. Format: functional, cell-based. As to conditions: Homo sapiens, MDA-MB-468, 72 h.
Description: Antiproliferative activity against human MDA-MB-468 cells assessed as cell viability after 72 hrs by MTT assay
In test [3] the test system is MCF7. Nature of the test: cells. The test is classed as functional, cell-based. As to conditions: Homo sapiens, MCF7, 72 h.
Description: Antiproliferative activity against human MCF7 cells assessed as cell viability after 72 hrs by MTT assay
In test [4] the test system is MCF-10A. Nature of the test: cells. The test is classed as ADME, cell-based. Conditions: Homo sapiens, 72 h.
Description: Antiproliferative activity against human MCF-10A cells assessed as cell viability after 72 hrs by MTT assay
Test [5] addresses T1, Histone-lysine N-methyltransferase EZH2 (Homo sapiens, UniProt Q15910).
Target sequence in this assay (Q15910 whole entry): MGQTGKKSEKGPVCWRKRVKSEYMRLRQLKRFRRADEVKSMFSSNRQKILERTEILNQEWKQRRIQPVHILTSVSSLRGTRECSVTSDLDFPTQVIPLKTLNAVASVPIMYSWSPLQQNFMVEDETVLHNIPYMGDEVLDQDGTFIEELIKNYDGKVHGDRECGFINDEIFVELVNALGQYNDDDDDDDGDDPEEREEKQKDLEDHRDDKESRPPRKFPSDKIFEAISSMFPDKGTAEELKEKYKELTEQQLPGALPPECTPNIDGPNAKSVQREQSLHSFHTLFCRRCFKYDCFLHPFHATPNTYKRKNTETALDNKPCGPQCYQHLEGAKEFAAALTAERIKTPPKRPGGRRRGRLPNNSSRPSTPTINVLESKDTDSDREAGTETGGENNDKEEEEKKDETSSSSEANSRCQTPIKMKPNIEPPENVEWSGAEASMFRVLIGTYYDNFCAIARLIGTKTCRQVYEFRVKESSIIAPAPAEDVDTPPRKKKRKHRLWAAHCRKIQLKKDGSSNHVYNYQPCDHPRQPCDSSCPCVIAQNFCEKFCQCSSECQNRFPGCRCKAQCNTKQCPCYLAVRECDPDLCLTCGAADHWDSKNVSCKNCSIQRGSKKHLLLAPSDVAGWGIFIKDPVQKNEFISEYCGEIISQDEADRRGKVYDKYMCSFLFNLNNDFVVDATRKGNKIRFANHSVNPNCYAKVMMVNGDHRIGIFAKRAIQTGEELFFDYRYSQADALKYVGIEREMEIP
Description: Inhibition of recombinant PRC2 complex (unknown origin) assessed as dissociation rate constant using H3K27me0 peptide substrate incubated for 3 hrs by HMT assay
Test [6] has as its target T1, Histone-lysine N-methyltransferase EZH2. The source holds these as a separate data set.
Target sequence in this assay (Q15910 whole entry): as above
Description: Inhibition of recombinant PRC2 complex (unknown origin) assessed as kd/ka using H3K27me0 peptide substrate incubated for 3 hrs by HMT assay
For test [7] the target is unchanged. As to conditions: time 3.0 hrs.
Target sequence in this assay (Q15910 whole entry, looked up): as the sequence (Q15910 whole entry) above

In the case of `CCNc1cc(-c2ccc(N3CCN(C(=O)c4cc(Cc5n[nH]c(=O)c6ccccc56)ccc4F)CC3)nc2)cc(C(=O)NCc2c(C)cc(C)[nH]c2=O)c1C`, the IC50 in test [1] is 32.3 µM; in test [2], 9.56 µM; in test [3] it was over 50 µM; in test [4], over 50 µM.
Regarding `Cc1cc(C)c(CNC(=O)c2cc(-c3ccc(N4CCN(C(=O)c5cc(Cc6n[nH]c(=O)c7ccccc67)ccc5F)CC4)nc3)cc3c2cnn3C(C)C)c(=O)[nH]1`, the IC50 was 25.8 µM in test [1], 17.9 µM in test [2], 40.2 µM in test [3] and over 50 µM in test [4].
Take `CCn1ccc2c(C(=O)NCc3c(C)cc(C)[nH]c3=O)cc(-c3ccc(N4CCN(C(=O)c5cc(Cc6n[nH]c(=O)c7ccccc67)ccc5F)CC4)nc3)cc21`: the IC50 in test [1], in test [2], in test [3] and in test [4] was over 50 µM each time.
Regarding `CCN(C(C)=O)c1cc(-c2ccc(N3CCN(C(=O)c4cc(Cc5n[nH]c(=O)c6ccccc56)ccc4F)CC3)nc2)cc(C(=O)NCc2c(C)cc(C)[nH]c2=O)c1C`, the IC50 is 18.4 µM in test [1], 9.56 µM in test [2], 26.2 µM in test [3] and over 50 µM in test [4].
The corresponding values for `COc1cc(C)c(C(=O)NCc2c(C)cc(C)[nH]c2=O)cc1-c1ccc(N2CCN(C(=O)c3cc(Cc4n[nH]c(=O)c5ccccc45)ccc3F)CC2)nc1` are 26.1 µM, 1940 µM, 44.2 µM and over 50 µM.
For `Cc1cc(C(=O)NCc2c(C)cc(C)[nH]c2=O)cc(-c2ccc(N3CCN(C(=O)c4cc(Cc5n[nH]c(=O)c6ccccc56)ccc4F)CC3)nc2)c1`, the IC50 in test [1] was over 50 µM; in test [2], 32.5 µM; in test [3], over 50 µM; in test [4], over 50 µM.
In the case of `CNc1cc(-c2ccc(N3CCN(C(=O)c4cc(Cc5n[nH]c(=O)c6ccccc56)ccc4F)CC3)nc2)cc(C(=O)NCc2c(C)cc(C)[nH]c2=O)c1C`, the IC50 was 46 µM in test [1], 17.3 µM in test [2], over 50 µM in test [3] and over 50 µM in test [4].
Take `Cc1cc(C)c(CNC(=O)c2cc(-c3ccc(N4CCN(C(=O)c5cc(Cc6n[nH]c(=O)c7ccccc67)ccc5F)CC4)nc3)cc3c2ccn3C)c(=O)[nH]1`: the IC50 in test [1], in test [2], in test [3] and in test [4] was over 50 µM each time.
In the case of `Cc1cc(C)c(CNC(=O)c2cc(-c3ccc(N4CCN(C(=O)c5cc(Cc6n[nH]c(=O)c7ccccc67)ccc5F)CC4)nc3)cc(NC(=O)CCC(=O)N(C)C)c2C)c(=O)[nH]1`, the IC50 is 22.1 µM in test [1], 8.24 µM in test [2], 30.4 µM in test [3] and over 50 µM in test [4].
Regarding `Cc1cc(C)c(CNC(=O)c2ccc(C)c(-c3ccc(N4CCN(C(=O)c5cc(Cc6n[nH]c(=O)c7ccccc67)ccc5F)CC4)nc3)c2)c(=O)[nH]1`, the IC50 in test [1] was over 50 µM; in test [2], 28.8 µM; in test [3] it was over 50 µM; in test [4], over 50 µM.
Turning to `Cc1cc(C)c(CNC(=O)c2cc(-c3ccc(N4CCN(C(=O)c5cc(Cc6n[nH]c(=O)c7ccccc67)ccc5F)CC4)nc3)cc(NC(C)C)c2C)c(=O)[nH]1`, the IC50 was over 50 µM in test [1], 16.5 µM in test [2], over 50 µM in test [3] and over 50 µM in test [4].
For `Cc1cc(C)c(CNC(=O)c2cc(-c3ccc(N4CCN(C(=O)c5cc(Cc6n[nH]c(=O)c7ccccc67)ccc5F)CC4)nc3)cc(NC(=O)CC(C)C)c2C)c(=O)[nH]1`, the IC50 in test [1] was 9.42 µM; in test [2] it was 0.76 µM; in test [3], 20 µM; in test [4] it was over 50 µM. For the same compound, the Kd in test [5] came to 0.1116 s⁻¹; in test [6] it was 25.46 s⁻¹. Moreover, in test [7], the Ka was 4.54 10^6/M/s.
Turning to `Cc1cc(C)c(CNC(=O)c2cc(-c3ccc(N4CCN(C(=O)c5cc(Cc6n[nH]c(=O)c7ccccc67)ccc5F)CC4)nc3)cc(N)c2C)c(=O)[nH]1`, the half-maximal inhibitory concentration (IC50) in test [1] is 1920 µM; in test [2], 12.1 µM; in test [3], 37.4 µM; in test [4], over 50 µM.
In the case of `CCC(=O)Nc1cc(-c2ccc(N3CCN(C(=O)c4cc(Cc5n[nH]c(=O)c6ccccc56)ccc4F)CC3)nc2)cc(C(=O)NCc2c(C)cc(C)[nH]c2=O)c1C`, the IC50 is 8.72 µM in test [1], 0.33 µM in test [2], 17.7 µM in test [3] and over 50 µM in test [4]. The Kd in test [5] turned out to be 0.09155 s⁻¹; in test [6] it was 18.37 s⁻¹. Moreover, the Ka in test [7] is 4.98 10^6/M/s.
`Cc1cc(C)c(CNC(=O)c2cc(-c3ccc(N4CCN(C(=O)c5cc(Cc6n[nH]c(=O)c7ccccc67)ccc5F)CC4)nc3)cc3c2ccn3C(C)C)c(=O)[nH]1`: the IC50 in test [1] was 33.5 µM; in test [2] it was 21.6 µM; in test [3], 47.5 µM; in test [4], over 50 µM.
The corresponding values for `Cc1cc(C)c(CNC(=O)c2cc(-c3ccc(N4CCN(C(=O)c5cc(Cc6n[nH]c(=O)c7ccccc67)ccc5F)CC4)nc3)cc([N+](=O)[O-])c2)c(=O)[nH]1` are over 50 µM, over 50 µM, over 50 µM and over 50 µM.
With `C=C(C)C(=O)N(CC)c1cc(-c2ccc(N3CCN(C(=O)c4cc(Cc5n[nH]c(=O)c6ccccc56)ccc4F)CC3)nc2)cc(C(=O)NCc2c(C)cc(C)[nH]c2=O)c1C`, the IC50 was 8.73 µM in test [1], 2.78 µM in test [2], 21.2 µM in test [3] and over 50 µM in test [4]. Further, the values for the Kd in test [5] and in test [6] were 0.04302 s⁻¹ and 38.77 s⁻¹, respectively. The Ka in test [7] is 1.11 10^6/M/s.
For the compound `Cc1cc(C)c(CNC(=O)c2cc(-c3ccc(N4CCN(C(=O)c5cc(Cc6n[nH]c(=O)c7ccccc67)ccc5F)CC4)nc3)cc([N+](=O)[O-])c2C)c(=O)[nH]1`, the IC50 in test [1], in test [2], in test [3] and in test [4] was over 50 µM in each case.
Turning to `Cc1cc(C)c(CNC(=O)c2cc(-c3ccc(N4CCN(C(=O)c5cc(Cc6n[nH]c(=O)c7ccccc67)ccc5F)CC4)nc3)cc(C(F)(F)F)c2)c(=O)[nH]1`, the IC50 in test [1] is 43.4 µM; in test [2] it was over 50 µM; in test [3], over 50 µM; in test [4], over 50 µM.
In the case of `Cc1cc(C)c(CNC(=O)c2cc(-c3ccc(N4CCN(C(=O)c5cc(Cc6n[nH]c(=O)c7ccccc67)ccc5F)CC4)nc3)ccc2C)c(=O)[nH]1`, the IC50 in test [1] is 30.2 µM; in test [2], 28.3 µM; in test [3] it was over 50 µM; in test [4], over 50 µM.
`C=CCn1ncc2c(C(=O)NCc3c(C)cc(C)[nH]c3=O)cc(-c3ccc(N4CCN(C(=O)c5cc(Cc6n[nH]c(=O)c7ccccc67)ccc5F)CC4)nc3)cc21`: the IC50 in test [1], in test [2], in test [3] and in test [4] was over 50 µM throughout.
For `Cc1cc(C)c(CNC(=O)c2cccc(-c3ccc(N4CCN(C(=O)c5cc(Cc6n[nH]c(=O)c7ccccc67)ccc5F)CC4)nc3)c2)c(=O)[nH]1`, the IC50 was 25 µM in test [1], 29.7 µM in test [2], 48.4 µM in test [3] and over 50 µM in test [4].
Regarding `CCN(c1cc(-c2ccc(N3CCN(C(=O)c4cc(Cc5n[nH]c(=O)c6ccccc56)ccc4F)CC3)nc2)cc(C(=O)NCc2c(C)cc(C)[nH]c2=O)c1C)C1CCOCC1`, the IC50 in test [1], in test [2], in test [3] and in test [4] was over 50 µM in each case.
Regarding `Cc1cc(C)c(CNC(=O)c2cc(-c3ccc(N4CCN(C(=O)c5cc(Cc6n[nH]c(=O)c7ccccc67)ccc5F)CC4)nc3)cc3c2cnn3C(=O)N(C)C)c(=O)[nH]1`, the IC50 in test [1], in test [2], in test [3] and in test [4] was over 50 µM throughout.
For the compound `C=C(C)C(=O)Nc1cc(-c2ccc(N3CCN(C(=O)c4cc(Cc5n[nH]c(=O)c6ccccc56)ccc4F)CC3)nc2)cc(C(=O)NCc2c(C)cc(C)[nH]c2=O)c1C`, the IC50 in test [1] was 17.9 µM; in test [2] it was 2.21 µM; in test [3], 30.1 µM; in test [4], over 50 µM.
The corresponding values for `Cc1cc(C)c(CNC(=O)c2cc(-c3ccc(N4CCN(C(=O)c5cc(Cc6n[nH]c(=O)c7ccccc67)ccc5F)CC4)nc3)cc(N(C)C)c2C)c(=O)[nH]1` are 23.2 µM, 15.2 µM, 38 µM and over 50 µM.
For `COC1CCN(C(=O)c2cc(Cc3n[nH]c(=O)c4ccccc34)ccc2F)CC1` [AZD2461], in that order: 36.9 µM, 35.6 µM, over 50 µM and over 50 µM.
For the compound `CCCC(=O)Nc1cc(-c2ccc(N3CCN(C(=O)c4cc(Cc5n[nH]c(=O)c6ccccc56)ccc4F)CC3)nc2)cc(C(=O)NCc2c(C)cc(C)[nH]c2=O)c1C`, the IC50 in test [1] was 26.1 µM; in test [2], 3.89 µM; in test [3], 33.2 µM; in test [4], over 50 µM.
The corresponding values for `Cc1cc(C)c(CNC(=O)c2cc(-c3ccc(N4CCN(C(=O)c5cc(Cc6n[nH]c(=O)c7ccccc67)ccc5F)CC4)nc3)cc3c2cnn3C)c(=O)[nH]1` are over 50 µM, over 50 µM, over 50 µM and over 50 µM.
Consider `CCC(=O)N(CC)c1cc(-c2ccc(N3CCN(C(=O)c4cc(Cc5n[nH]c(=O)c6ccccc56)ccc4F)CC3)nc2)cc(C(=O)NCc2c(C)cc(C)[nH]c2=O)c1C`, for which the IC50 in test [1] was 2.82 µM; in test [2], 2.11 µM; in test [3], 18.2 µM; in test [4], over 50 µM. The figures for the Kd in test [5] and in test [6] were 0.02027 s⁻¹ and 31.74 s⁻¹, respectively. Besides, the Ka in test [7] was 6.39 10^5/M/s.

In general, IC50 refers to the midpoint of a concentration-inhibition curve.
